Assay results published in the supplement of paper PMC10627819.

Legend:
[1] = system: S. aureus Newman; experiment: Bliss interaction score (quartile over a dose matrix) (fitness difference); higher = more antagonism (negative = synergy)
In short: (§1)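 Fitness was OD595 at entry into stationary phase divided by the plate's robust no-drug mean and capped at 1; single-drug fitness was inferred from combination data. The Bliss score is observed minus expected (product) fitness, summarised by quartiles over technical, biological and donor/recipient replicates.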

[2] = system: S. aureus DSM 20231; experiment: as above
In short: as §1

[3] = system: S. pneumoniae D39V; experiment: as above
In short: as §1

[4] = system: B. subtilis 168; experiment: as above
In short: as §1

[5] = system: S. pneumoniae D39V; experiment: fitness (endpoint OD595 vs no drug) (fraction); higher = more growth
In short: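 In 384-well plates at 37 °C, cultures began at OD595 0.01 in 30 µl, with 55 µl used for S. pneumoniae. OD595 readings every 30 min for 14 h were corrected by the first reading. Fitness divides the stationary-phase transition optical density by the robust mean of no-drug control wells. The result is capped at 1.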
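For Bliss interaction score (quartile over a dose matrix) in this document: first quartile when negative (synergy) and third quartile when positive (antagonism).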

CC[C@H]1OC(=O)[C@H](C)[C@@H](O[C@H]2C[C@@](C)(OC)[C@@H](O)[C@H](C)O2)[C@H](C)[C@@H](O[C@@H]2O[C@H](C)C[C@H](N(C)C)[C@H]2O)[C@](C)(OC)C[C@@H](C)C(=O)[C@H](C)[C@@H](O)[C@]1(C)O [Clarithromycin] + CN(C)C(=O)C(CCN1CCC(O)(c2ccc(Cl)cc2)CC1)(c1ccccc1)c1ccccc1 [Loperamide]
Settings | Bliss interaction score
[1] | -0.0355
[2] | 0.18
[3] | 0.129
[4] | 0.0248

fitness, [5], one replicate
Settings | first compound 0.007812 µg/mL | first compound 0.01562 µg/mL | first compound 0.03125 µg/mL | first compound 0.0625 µg/mL | first compound 0.125 µg/mL | first compound 0.25 µg/mL
partner 20 µg/mL | ≥ 1 | ≥ 1 | 0.711 | – | – | –
partner 40 µg/mL | ≥ 1 | 0.995 | 0.768 | – | – | –
partner 68.57 µg/mL | – | – | – | 0.913 | 0.515 | 0.498
partner 80 µg/mL | 0.0268 | 0.0618 | 0.0304 | – | – | –

fitness, [5]
Settings | first compound 0.0625 µg/mL | first compound 0.07 µg/mL | first compound 0.125 µg/mL | first compound 0.14 µg/mL | first compound 0.28 µg/mL
partner 17.14 µg/mL | 0.788 | – | 0.541 | – | –
partner 20 µg/mL | – | 0.168 | – | 0.0771 | 0.0614
partner 34.28 µg/mL | 0.751 | – | 0.491 | – | –
partner 40 µg/mL | – | 0.173 | – | 0.0855 | 0.0994
partner 80 µg/mL | – | 0.0672 | – | 0.0833 | 0.047

CC[C@H]1OC(=O)[C@H](C)[C@@H](O[C@H]2C[C@@](C)(OC)[C@@H](O)[C@H](C)O2)[C@H](C)[C@@H](O[C@@H]2O[C@H](C)C[C@H](N(C)C)[C@H]2O)[C@](C)(OC)C[C@@H](C)C(=O)[C@H](C)[C@@H](O)[C@]1(C)O [Clarithromycin] + CN(C)c1cc(NC(=O)CNC(C)(C)C)c(O)c2c1C[C@H]1C[C@H]3[C@H](N(C)C)C(O)=C(C(N)=O)C(=O)[C@@]3(O)C(O)=C1C2=O [Tigecycline]
Settings | Bliss interaction score
[1] | -0.0401
[2] | 0.0343
[3] | -0.0848
[4] | 0.0852

fitness, [5], one replicate
Settings | first compound 0.007812 µg/mL | first compound 0.01562 µg/mL | first compound 0.03125 µg/mL
partner 0.65 µg/mL | 0.848 | 0.757 | 0.646
partner 1.3 µg/mL | 0.813 | 0.749 | 0.633
partner 2.6 µg/mL | 0.815 | 0.747 | 0.619

fitness, [5]
Settings | first compound 0.0625 µg/mL | first compound 0.07 µg/mL | first compound 0.125 µg/mL | first compound 0.14 µg/mL | first compound 0.25 µg/mL | first compound 0.28 µg/mL
partner 0.325 µg/mL | – | 0.111 | – | 0.071 | – | 0.0539
partner 0.65 µg/mL | 0.589 | 0.0865 | 0.253 | 0.0638 | 0.113 | 0.0627
partner 1.3 µg/mL | 0.506 | 0.0861 | 0.213 | 0.0727 | 0.103 | 0.068
partner 2.6 µg/mL | 0.494 | – | 0.198 | – | 0.119 | –

CC[C@H]1OC(=O)[C@H](C)[C@@H](O[C@H]2C[C@@](C)(OC)[C@@H](O)[C@H](C)O2)[C@H](C)[C@@H](O[C@@H]2O[C@H](C)C[C@H](N(C)C)[C@H]2O)[C@](C)(OC)C[C@@H](C)C(=O)[C@H](C)[C@@H](O)[C@]1(C)O [Clarithromycin] + CN(N=O)C(=O)N[C@@H](C=O)[C@@H](O)[C@H](O)[C@H](O)CO [Streptozotocin]
Settings | Bliss interaction score
[1] | -0.0313
[2] | 0.0361
[3] | 0.0525
[4] | 0.0503

fitness, [5], one replicate
Settings | first compound 0.007812 µg/mL | first compound 0.01562 µg/mL | first compound 0.03125 µg/mL | first compound 0.0625 µg/mL | first compound 0.125 µg/mL | first compound 0.25 µg/mL
partner 1.2 µg/mL | 0.873 | 0.804 | 0.673 | 0.674 | 0.263 | 0.0915
partner 2.4 µg/mL | 0.877 | 0.815 | 0.672 | 0.713 | 0.32 | 0.134
partner 4.8 µg/mL | 0.87 | 0.802 | 0.661 | 0.537 | 0.0252 | 0

fitness, [5]
Settings | first compound 0.07 µg/mL | first compound 0.14 µg/mL | first compound 0.28 µg/mL
partner 1.2 µg/mL | 0.115 | 0.0648 | 0.031
partner 2.4 µg/mL | 0.119 | 0.0981 | 0.0724
partner 4.8 µg/mL | 0.0916 | 0.0774 | 0.033
